Reference: patent US12371454B2, “Cyclic peptide compound having Kras inhibitory action” (priority 2019, dated 2025)
Starred links: 1 amine or outer side, 2 acyl side, 3 side chain; linkers in the order of their positions; H or OH if unused. Positions of bridges follow the written chain, without caps; N, C: chain ends. Non-standard residues stand in square brackets, D forms with d. Residues, ends and D or L forms follow the SMILES beside them. *: point of attachment. hPhe(3,5-F2-4-CF3) = N[C@@H](CCc1cc(F)c(C(F)(F)F)c(F)c1)C(=O)O; hPhe(3-Cl-4-CF3) = N[C@@H](CCc1ccc(C(F)(F)F)c(Cl)c1)C(=O)O; hPhe(3-F,4-CF3) = N[C@@H](CCc1ccc(C(F)(F)F)c(F)c1)C(=O)O; X75 = O=C([C@H](CCc1ccc2c(c1)OC(F)(F)O2)N[*:1])[*:2]; 3Oxa8azabicyclo(3.2.1)octane = C1CC2COCC1N2*; X6 = CCN([C@@H](CC1CCCCC1)C(=O)[*:2])[*:1]; NMeAla(cPent) = CN[C@@H](CC1CCCC1)C(=O)O; NMeGly(cPent) = CN[C@H](C(=O)O)C1CCCC1; NMeGly(cBu) = CN[C@H](C(=O)O)C1CCC1; NMeCha = CN[C@@H](CC1CCCCC1)C(=O)O; NMehLeu = CN[C@@H](CCC(C)C)C(=O)O; NMeI = CC[C@H](C)[C@H](NC)C(=O)O; NMeD = CN[C@@H](CC(=O)O)C(=O)O; NMeL = CN[C@@H](CC(C)C)C(=O)O; NMeV = CN[C@H](C(=O)O)C(C)C; NMeS = CN[C@@H](CO)C(=O)O; NMeA = CN[C@@H](C)C(=O)O; Piperidide = C1CCN(*)CC1; Pyrrolidide = C1CCN(*)C1; Ac5c = NC1(C(=O)O)CCCC1; Aze = O=C(O)[C@@H]1CCN1; Sar = CNCC(=O)O; Propyl = CCC*

Tested on: Human pancreatic cancer cell line AsPC-1
Test: Measurement of AsPC-1 cell growth inhibition (AsPC-1 CGI)
Type: cell-based
Conditions: 96 h
Outline: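 AsPC-1 cells in 15% FBS RPMI-1640 were exposed to test compound for 96 hours at 37° C, with CellTiter-Glo as endpoint.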

CC[C@H](C)[C@@H]1NC(=O)[C@H](CCC(C)C)N(C)C(=O)C[C@@H](C(=O)N2CCCCC2)N(C)C(=O)[C@H](C(C)C)N(C)C(=O)C2(CCCC2)NC(=O)[C@@H]2CCCN2C(=O)[C@H](CCc2ccc(C(F)(F)F)c(Cl)c2)NC(=O)CN(C)C(=O)[C@H](CC2CCCCC2)N(C)C(=O)[C@@H]2CCN2C(=O)[C@H](C)N(C)C1=O [Compound 1833] ([NMehLeu]I[NMeA][Aze][NMeCha][Sar][hPhe(3-Cl-4-CF3)]P[Ac5c][NMeV][NMeD]-Piperidide; lactam N-11) and CC[C@H](C)[C@@H]1NC(=O)[C@H](CC(C)C)N(C)C(=O)C[C@@H](C(=O)N2CCCCC2)N(C)C(=O)[C@H](C(C)C)N(C)C(=O)C2(CCCC2)NC(=O)[C@@H]2CCCN2C(=O)[C@H](CCc2ccc(C(F)(F)F)c(Cl)c2)NC(=O)CN(C)C(=O)[C@H](CC2CCCCC2)N(CC)C(=O)[C@@H]2CCN2C(=O)[C@H](C)N(C)C1=O [Compound 23] ([NMeL]I[NMeA][Aze][X6][Sar][hPhe(3-Cl-4-CF3)]P[Ac5c][NMeV][NMeD]-Piperidide; lactam N-11) fall in the same range of IC50: 100 to 500 nM for the first, 100 to 500 nM for the second.

First: CC[C@H](C)[C@@H]1NC(=O)[C@H](CC(C)C)N(C)C(=O)C[C@@H](C(=O)N2CCCC2)N(C)C(=O)[C@H]([C@@H](C)CC)N(C)C(=O)C2(CCCC2)NC(=O)[C@@H]2CCCN2C(=O)[C@H](CCc2ccc(C(F)(F)F)c(F)c2)NC(=O)CN(C)C(=O)[C@H](CC2CCCCC2)N(C)C(=O)[C@@H]2CCN2C(=O)[C@H](C)N(C)C1=O [Compound 868] ([NMeL]I[NMeA][Aze][NMeCha][Sar][hPhe(3-F,4-CF3)]P[Ac5c][NMeI][NMeD]-Pyrrolidide; lactam N-11)
Second: CC[C@H](C)[C@@H]1NC(=O)[C@H](CC(C)C)N(C)C(=O)C[C@@H](C(=O)N2CCCCC2)N(C)C(=O)[C@H]([C@@H](C)CC)N(C)C(=O)C2(CCCC2)NC(=O)[C@@H]2CCCN2C(=O)[C@H](CCc2ccc(C(F)(F)F)c(F)c2)NC(=O)CN(C)C(=O)[C@H](C2CCCC2)N(C)C(=O)[C@@H]2CCN2C(=O)[C@H](C)N(C)C1=O [Compound 674] ([NMeL]I[NMeA][Aze][NMeGly(cPent)][Sar][hPhe(3-F,4-CF3)]P[Ac5c][NMeI][NMeD]-Piperidide; lactam N-11)
The IC50 of the first is lower: 20 to 50 nM for the first, 50 to 100 nM for the second. The first is the more potent here.

CCCOC[C@H]1C(=O)N(C)CC(=O)N[C@@H](CCc2cc(F)c(C(F)(F)F)c(F)c2)C(=O)N2CCC[C@H]2C(=O)NC2(CCCC2)C(=O)N(C)[C@@H](C2CCCC2)C(=O)N(C)[C@H](C(=O)N2C3CCC2COC3)CC(=O)N(C)[C@@H](CC(C)C)C(=O)N[C@@H]([C@@H](C)CC)C(=O)N(C)[C@@H](C)C(=O)N2CC[C@H]2C(=O)N1C [Compound 1355] ([NMeL]I[NMeA][Aze][NMeS](Propyl)[Sar][hPhe(3,5-F2-4-CF3)]P[Ac5c][NMeGly(cPent)][NMeD]-{3Oxa8azabicyclo(3.2.1)octane}; lactam N-11) and CCCOC[C@H]1C(=O)N(C)CC(=O)N[C@@H](CCc2ccc(C(F)(F)F)c(Cl)c2)C(=O)N2CCC[C@H]2C(=O)NC2(CCCC2)C(=O)N(C)[C@@H](C2CCCC2)C(=O)N(C)[C@H](C(=O)N2C3CCC2COC3)CC(=O)N(C)[C@@H](CC2CCCC2)C(=O)N[C@@H]([C@@H](C)CC)C(=O)N(C)[C@@H](C)C(=O)N2CC[C@H]2C(=O)N1C [Compound 1251] ([NMeAla(cPent)]I[NMeA][Aze][NMeS](Propyl)[Sar][hPhe(3-Cl-4-CF3)]P[Ac5c][NMeGly(cPent)][NMeD]-{3Oxa8azabicyclo(3.2.1)octane}; lactam N-11) fall in the same range of IC50: 20 to 50 nM for the first, 20 to 50 nM for the second.

First: CC[C@H](C)[C@@H]1NC(=O)[C@H](CC(C)C)N(C)C(=O)C[C@@H](C(=O)N2CCCCC2)N(C)C(=O)[C@H](C(C)C)N(C)C(=O)C2(CCCC2)NC(=O)[C@@H]2CCCN2C(=O)[C@H](CCc2ccc(C(F)(F)F)c(Cl)c2)NC(=O)CN(C)C(=O)[C@H](C2CCC2)N(C)C(=O)[C@@H]2CCN2C(=O)[C@H](C)N(C)C1=O [Compound 446] ([NMeL]I[NMeA][Aze][NMeGly(cBu)][Sar][hPhe(3-Cl-4-CF3)]P[Ac5c][NMeV][NMeD]-Piperidide; lactam N-11)
Second: CC[C@H](C)[C@@H]1NC(=O)[C@H](CC(C)C)N(C)C(=O)C[C@@H](C(=O)N2CCCCC2)N(C)C(=O)[C@H](C2CCCC2)N(C)C(=O)C2(CCCC2)NC(=O)[C@@H]2CCCN2C(=O)[C@H](CCc2ccc3c(c2)OC(F)(F)O3)NC(=O)CN(C)C(=O)[C@H](CC2CCCCC2)N(C)C(=O)[C@@H]2CCN2C(=O)[C@H](C)N(C)C1=O [Compound 2074] ([NMeL]I[NMeA][Aze][NMeCha][Sar][X75]P[Ac5c][NMeGly(cPent)][NMeD]-Piperidide; lactam N-11)
The IC50 of the first is higher: 100 to 500 nM for the first, 50 to 100 nM for the second.
